The text below walks through data of ChEMBL document CHEMBL5260858, “Targeting mycobacterial membranes and membrane proteins: Progress and limitations” (Bioorg Med Chem, 2023).

The subject of test [1] is Mycobacterium tuberculosis. In words: Antitubercular activity against Mycobacterium tuberculosis Erdman assessed as bacterial growth inhibition incubated for 1 week by microplate alamar blue assay. It is filed as functional, organism-based. The settings on record: 168 h. On the technique in general: The colour change of resazurin is a common sign of viable cells or microbes.

The subject of test [2] is Mycobacterium tuberculosis. Nature of the test: Antitubercular activity against Mycobacterium tuberculosis H37Rv assessed as bacterial growth inhibition incubated for 14 days by agar plate method. It is filed as functional. The settings on record: 336 h, time 14 day.
Test [3] has as its system Mycobacterium tuberculosis. In words: Antitubercular activity against Mycobacterium tuberculosis H37Rv assessed as bacterial growth inhibition in presence of clavulanate by checkerboard assay. It is filed as functional.
Test [4] has as its system Mycobacterium tuberculosis. In words: Antitubercular activity against Mycobacterium tuberculosis H37Rv assessed as bacterial growth inhibition by checkerboard assay. It is filed as functional.
In test [5] the test system is Mycobacterium tuberculosis. Nature of the test: Antitubercular activity against Mycobacterium tuberculosis H37Rv assessed as extracellular bacterial growth inhibition. It is filed as functional.
Test [6] deals with Mycobacterium tuberculosis. In words: Antitubercular activity against Mycobacterium tuberculosis H37Rv assessed as intracellular bacterial growth inhibition. It is filed as functional.
Test [7] deals with Mycobacterium tuberculosis. In words: Antitubercular activity against Mycobacterium tuberculosis ATCC 27294 (H37Rv) assessed as bacterial growth inhibition by agar dilution method. It is filed as functional. A general note: In agar dilution, organisms are placed on agar that contains the substance at set levels.
Test [8] deals with Mycobacterium tuberculosis. In words: Antitubercular activity against Mycobacterium tuberculosis assessed as bacterial growth inhibition in 7H9 medium incubated for 5 days by microplate reader analysis. It is filed as functional. As to conditions: 120 h, time 5 day.
The subject of test [9] is Mycobacterium tuberculosis. In words: In vivo antimycobacterial activity against Mycobacterium tuberculosis H37Rv infected in BALB/c mouse assessed as reduction in bacterial load in lungs at 40 to 100 mg/kg, po and measured after 4 weeks. It is filed as functional. As to conditions: dose 40-100 mg/kg.
Test [10] has as its system Mycobacterium tuberculosis. Nature of the test: In vivo antimycobacterial activity against Mycobacterium tuberculosis H37Rv infected in BALB/c mouse assessed as reduction in bacterial load in spleen at 40 to 100 mg/kg, po and measured after 4 weeks. It is filed as functional. As to conditions: dose 40-100 mg/kg.
Test [11] relates to Mycobacterium tuberculosis. In words: Antitubercular activity against Mycobacterium tuberculosis H37Rv TMC102 assessed as bacterial growth inhibition. It is filed as functional.
Test [12] has as its system Mycobacterium tuberculosis. Nature of the test: Antimycobacterial activity against Mycobacterium tuberculosis CIP103471 infected in human U-937 cells assessed as bacterial growth inhibition incubated for 7 days. The settings on record: CIP103471, 168 h, time 7 day. It is filed as functional.
Test [13] relates to Mycobacterium tuberculosis. In words: Antitubercular activity against Mycobacterium tuberculosis H37Rv assessed as bacterial growth inhibition incubated for 6 days by resazurin reduction microplate assay. It is filed as functional. As to conditions: 144 h, time 6 day.
Test [14] has as its system Mycobacterium tuberculosis. In words: Antitubercular activity against Mycobacterium tuberculosis H37Rv infected in human THP-1 cells assessed as bacterial growth inhibition incubated for 48 hrs by PrestoBlue staining based fluorescence analysis. It is filed as functional, organism-based. As to conditions: THP-1, 48 h.
The test system of test [15] is Mycobacterium tuberculosis. In words: Antitubercular activity against Mycobacterium tuberculosis H37Rv infected in BALB/c mouse assessed as reduction in bacterial load at 100 mg/kg, po for 10 days by CFU analysis. The settings on record: time 10 day. It is filed as functional.
For test [16], the system named is Mycolicibacterium smegmatis. Nature of the test: Antitubercular activity against Mycobacterium smegmatis assessed as bacterial growth inhibition. It is filed as functional.
For test [17], the system named is Mycobacterium tuberculosis. Nature of the test: In vivo antimycobacterial activity against Mycobacterium tuberculosis H37Rv infected in BALB/c mouse assessed as reduction in bacterial load in lung at 50 mg/kg, po and measured after 3 weeks. It is filed as functional.
The test system of test [18] is Mycobacterium tuberculosis. Nature of the test: In vivo antimycobacterial activity against Mycobacterium tuberculosis H37Rv infected in BALB/c mouse assessed as reduction in bacterial load in lung at 100 mg/kg, po and measured after 3 weeks. It is filed as functional.
Test [19] deals with Mycobacterium tuberculosis. In words: In vivo antimycobacterial activity against Mycobacterium tuberculosis H37Rv infected in BALB/c mouse assessed as reduction in bacterial load in lung at 200 mg/kg, po and measured after 4 weeks. It is filed as functional.
The subject of test [20] is Mycolicibacterium smegmatis. Nature of the test: Antitubercular activity against Mycobacterium smegmatis ATCC 607 assessed as zone of inhibition incubated 30 hrs by Kirby-Bauer disc diffusion assay. It is filed as functional. (A growth-free zone around the sample is the usual read-out of agar diffusion tests.)
In test [21] the test system is Mycobacterium tuberculosis. Nature of the test: In vivo antimycobacterial activity against Mycobacterium tuberculosis H37Rv infected in C57BL/6 mouse assessed as reduction in bacterial load in lung at 10 mg/kg, po and measured after 10 days by CFU analysis. It is filed as functional. The settings on record: time 10 day.
Test [22] relates to Mycobacterium tuberculosis. Nature of the test: In vivo antimycobacterial activity against Mycobacterium tuberculosis H37Rv infected in C57BL/6 mouse assessed as reduction in bacterial load in lung at 30 mg/kg, po and measured after 10 days by CFU analysis. It is filed as functional. As to conditions: time 10 day.
Test [23] concerns Mycobacterium tuberculosis. Nature of the test: In vivo antimycobacterial activity against Mycobacterium tuberculosis H37Rv infected in C57BL/6 mouse assessed as reduction in bacterial load in spleen at 10 mg/kg, po and measured after 10 days by CFU analysis. It is filed as functional. As to conditions: time 10 day.
Test [24] concerns Mycobacterium tuberculosis. In words: In vivo antimycobacterial activity against Mycobacterium tuberculosis H37Rv infected in C57BL/6 mouse assessed as reduction in bacterial load in spleen at 30 mg/kg, po and measured after 10 days by CFU analysis. It is filed as functional. As to conditions: time 10 day.
For test [25], the system named is Mycobacterium tuberculosis. Nature of the test: Antitubercular activity against Mycobacterium tuberculosis H37Rv assessed as bacterial growth inhibition incubated for 7 days by microplate alamar blue assay. It is filed as functional. The settings on record: 168 h, time 7 day.
Test [26] concerns Mycobacterium tuberculosis. In words: Antitubercular activity against Mycobacterium tuberculosis H37Rv assessed as bacterial growth inhibition incubated for 7 days by resazurin reduction microplate assay. It is filed as functional. As to conditions: 168 h, time 7 day.
The test system of test [27] is Mycobacterium tuberculosis. In words: Antitubercular activity against Mycobacterium tuberculosis H37Rv infected in BALB/c mouse assessed as reduction in bacterial load at 150 mg/kg, po for 10 days by CFU analysis. It is filed as functional. The settings on record: time 10 day.

Values after ≈ are worked out from the molar mass of the structure shown.

Turning to `CCCCNc1nc(CC)nc2sc(C)cc12`, the half-maximal inhibitory concentration (IC50) in [1] worked out at 2700 nM.
With `Cc1cc2oc(=O)cc(-c3ccccc3)c2c(C)c1-c1ccc(CN2CCOCC2)cc1`, in [2], the MIC turned out to be 0.42 µM (≈ 0.179 µg/mL).
Take `CO[C@H]1CCC[C@H]2C1=C(C(=O)OC(C)OC(=O)OC1CCCCC1)N1C(=O)[C@H]([C@@H](C)O)[C@@H]21` (stereo not given in full) [SANFETRINEM CILEXETIL]: the MIC is 5 µM in test [3] and 7.5 µM in test [4].
As for `COc1ccc(OCCNC(=O)c2cc([N+](=O)[O-])cc([N+](=O)[O-])c2)cc1`, the MIC in test [5] and in test [6] was 0.2 µM (≈ 0.0723 µg/mL) each time.
For `CCOC(=O)NC(=O)c1ccsc1NC(=O)c1nc2ccccc2s1`, the MIC in test [7] and in test [8] was 0.19 µg/mL (≈ 0.506 µM) throughout. Besides, the Activity amounted to 2 log10CFU in test [9] and 3 log10CFU in test [10].
For `O=C(Nc1ccc(F)c(F)c1F)NC12CC3CC(CC(C3)C1)C2`, the MIC in test [11] worked out at 0.1 µg/mL (≈ 0.308 µM).
In the case of `Cc1c(CN2CCN(C)CC2)cc(-c2ccc(Cl)cc2)n1-c1ccc(Cl)cc1`, the MIC in [12] is 1 µg/mL (≈ 2.41 µM).
Consider `O=C(/C=C/c1ccccc1)N1CCN(Cc2ccc3c(c2)OCO3)CC1`, for which, in [13], the MIC was determined as 0.2 µg/mL (≈ 0.571 µM). For the same compound, the IC50 in test [14] came out at 0.3 µg/mL (≈ 0.856 µM). Also, the Activity in test [15] is listed as 0.9 log10CFU.
Consider `CCOC(=O)NC(=O)c1ccsc1NC(=O)c1nc2ccncc2s1`, for which the MIC in test [16] worked out at 0.089 µM (≈ 0.0335 µg/mL). The Activity in test [17] is listed as 1.7 log10CFU; in test [18] it was 2.3 log10CFU; in [19], greater than 1.7 log10CFU.
In the case of `C=CCN1C(=O)NC(=O)/C(=C/NNC(=O)c2ccncc2)C1=O`, the “inhibition zone (IZ)” value in test [20] is 20 mm. The Activity in [21] was determined as 1 log10CFU; in test [22], 2.1 log10CFU; in test [23], 0.6 log10CFU; in test [24], 1.3 log10CFU.
`O=c1cc(-c2ccccc2O)oc2ccc(O)c(CN3CCC3)c12`: the MIC in test [25] was determined as 0.45 µg/mL (≈ 1.39 µM).
Regarding `O=C(/C=C/c1cscn1)N1CCN(Cc2ccc3c(c2)OCO3)CC1`, the MIC in [13] was 0.1 µg/mL (≈ 0.28 µM). Further, the half-maximal inhibitory concentration (IC50) in [14] is 0.2 µg/mL (≈ 0.56 µM). Besides, the Activity in test [15] is on record as 0.6 log10CFU.
For the compound `CCSc1nc(NC)c2ccc(F)c(F)c2n1`, in test [26], the MIC turned out to be 0.02 µg/mL (≈ 0.0783 µM). Further, the Activity in test [27] worked out at 0.5 log10CFU.

One may read the IC50 as the concentration at which inhibition is half-maximal. A word on the MIC: it is the lowest concentration that inhibits growth of the organism.
